Patent US11807895B2, “High-throughput drug and genetic assays for cellular transformation” (THE BROAD INSTITUTE, INC., priority 2015, dated 2023)
“Also recorded” adds a separate entry of the source. Structures can show the parent of a compound that is named as a salt.

How the values were obtained:
[1] = system: fibroblasts transformed with TERT, SV40 T-antigen, and H-RAS; assay: GILA (growth in low attachment) drug screen, ATP/CellTiter-Glo viability; assay type: cell-based, human; details: 633 kinase inhibitors and FDA-approved drugs screened at 30 μM or 10 μM, 5 days
Text: To identify drugs specifically inhibiting the oncogenic state of fibroblasts transformed with TERT, SV40 T-antigen, and H-RAS (Hahn W C, et al. (1999) Creation of human tumour cells with defined genetic elements. Nature 400:464-468.), GILA was used as a primary screen and growth on standard high-attachment plates as a counterscreen.
Transformed fibroblast cells were maintained as subconfluent monolayers, trypsinized, and seeded in 96-well plates (for analytical assays, FIG. 14) or in 384-well white plates (for screens, FIG. 3). The cell concentration was optimized to 1000 cells/well in 100 μl medium (for 96-well plate) or 50 cells/well in 30 μl growth medium (for 384-well plate). Two types of plates were used in the screens: high-attachment conditions (Corning, 3704) and Ultra Low-attachment (Sumitomo, PrimeSurface384U). Cells were seeded automatically using the liquid rapid dispenser Metrix WellMate (Thermo). Two small molecule libraries (NIH Clinical Collection 1-2013 and Kinase Inhibitor Focused Library) were transferred to each microplate, at 100 nl drug per well, to final concentration of 30 μM or 10 μM, respectively, by using the robotic transfer system (Seiko Epson) and pin array (V&P). Controls were added by multichannel pipette. After 5 days of incubation at 37° C. in 5% CO2, the cells were assayed for ATP content. […] The secondary screen was conducted similarly, except that an HP D300 Digital Liquid Dispenser and T8 dispenseheads (HP) was used to add 4 different concentrations of small molecules to the cells.
Crosstalk corrected values from EnVision reader were used to normalize the luminescence from each wells.

[2] = system: ascites-derived ovarian cancer cells from patients; assay: Ex-vivo GILA drug sensitivity of patient-derived cancer cells; assay type: cell-based, human; details: for inhibitory activity in ex-vivo GILA assay: 5 patients who failed multiple lines of treatment, 5000 cells per well, 72 hours; for dose dependence of viability in ex-vivo GILA: ovary cancer patient derived cells
Experimental: Patient-derived ovarian cancer cells are sensitive to FDA-approved drugs identified in the GILA-based screen. […] Immediately after procurement, ascites samples were processed and 5000 cells per well were flow-sorted into 96-well microtiter plates with low or high-attachment surfaces containing 100 μl of growth medium per well.
Cell viability was measured with the CellTiter-Glo (Promega) luminescent assay, using the EnVision Plate Reader (PerkinElmer) or the SpectraMax M5 Multi-Mode Microplate Reader (Molecular Devices). For high-attachment growth, tissue culture-treated 96-well clear plates (#3997, Corning) were used, while for the GILA assay low attachment surface plates (#3474, Corning) of 96-well clear plates were used for 3 to 5 days. Later the cells were moved to 96-Well Solid White Polystyrene Microplate (#3362, 14 Corning) for reading luminescence signal. To avoid bleeding of luminescence between the wells, every other well left empty in the solid white microplate. 30 μl of CTG reagent was used for 384-well microplates, and 100 μl for 96-well microplates. The cells were moderately shaken for 5 minutes in the reagent, followed by incubation for 20 minutes to ensure cell lysis. No background signal was detected from wells containing only culture medium.
Under an institutional review board approved protocol, freshly discarded ascites from patients with advanced stage ovarian cancers was collected from 5 individuals. Ascites fluid was immediately transferred on ice for further processing. Samples were spun down and red blood cells were removed with hypotonic lysis using ACK lysing buffer (Life Technologies). Cells were filtered through a 40 μm mesh and washed in PBS with 2% FBS and subjected to staining for FACS.
Cells were prepared per standard protocols, stained with Calcein-AM, CD45-FITC, EPCAM-PE and CD24-PE/Cy7 and incubated for 20 minutes on ice. Cells were washed with […] prior to flow-sorting. After doublet discrimination and compensation for spectral overlap, single, viable cells, negative for CD45 and positive for EPCAM and CD24 were flow-sorted into wells (96 well plates) prepared with growth 15 medium. Samples were sorted on a BD FACSAria SORP and analyzed using BD FACSDiva Software (BD Biosciences).

IL-6 = details: Hong et al. 2012: LPS-stimulated mouse macrophages and TG-injected mice; cited from earlier work
[3] = listed as Azelastine hydrochloride, hydrochloride

| SMILES | hit in GILA-based drug screen (inhibits growth in low attachment, less pronounced effect on high attachment) [1] | also measured |
| --- | --- | --- |
| CC(C)CC(N(C)C)C1(c2ccc(Cl)cc2)CCC1 (stereo not drawn) [sibutramine] | top hits |  |
| CN1CCCC(n2nc(Cc3ccc(Cl)cc3)c3ccccc3c2=O)CC1 (stereo not drawn) [azelastine hydrochloride] | identified and validated in the drug screen | inhibitory activity in ex-vivo GILA assay [2, 3]: highly effective at inhibiting growth; inhibitory activity in ex-vivo GILA assay ([2]; listed as azelastine, hydrochloride): demonstrated inhibitory activity; dose dependence of viability in ex-vivo GILA ([2]; hydrochloride): dose dependent response; dose dependence of viability in ex-vivo GILA [2, 3]: concentration-dependent viability |
| COc1ccc(-c2cc(=O)c3c(OC)c(OC)c(OC)c(OC)c3o2)cc1OC [nobiletin] | identified and validated in the drug screen |  |
| Cc1cccc(-c2[nH]ncc2-c2ccc3ncccc3n2)n1 [RepSox] | identified and validated in the drug screen |  |
| C=C1/C(=C\C=C2/CCC[C@]3(C)[C@@H]([C@H](C)/C=C/[C@@H](O)C4CC4)CC[C@@H]23)C[C@@H](O)C[C@@H]1O [calcipotriol] | top hits |  |
| CC(=O)Oc1ccccc1C(=O)Nc1ncc([N+](=O)[O-])s1 [nitazoxanide] | top hits; also recorded: identified and validated in the drug screen | inhibitory activity in ex-vivo GILA assay [2]: demonstrated inhibitory activity; IL-6 suppression (IL-6): suppresses IL-6 |
